The test addresses T1, human TRH-DE (Homo sapiens, UniProt Q9UKU6).
T1 construct: expressed in transfected cells; host or cells: Expi 293 cells (transient expression), membrane fraction
T1 sequence (Q9UKU6 1-1069): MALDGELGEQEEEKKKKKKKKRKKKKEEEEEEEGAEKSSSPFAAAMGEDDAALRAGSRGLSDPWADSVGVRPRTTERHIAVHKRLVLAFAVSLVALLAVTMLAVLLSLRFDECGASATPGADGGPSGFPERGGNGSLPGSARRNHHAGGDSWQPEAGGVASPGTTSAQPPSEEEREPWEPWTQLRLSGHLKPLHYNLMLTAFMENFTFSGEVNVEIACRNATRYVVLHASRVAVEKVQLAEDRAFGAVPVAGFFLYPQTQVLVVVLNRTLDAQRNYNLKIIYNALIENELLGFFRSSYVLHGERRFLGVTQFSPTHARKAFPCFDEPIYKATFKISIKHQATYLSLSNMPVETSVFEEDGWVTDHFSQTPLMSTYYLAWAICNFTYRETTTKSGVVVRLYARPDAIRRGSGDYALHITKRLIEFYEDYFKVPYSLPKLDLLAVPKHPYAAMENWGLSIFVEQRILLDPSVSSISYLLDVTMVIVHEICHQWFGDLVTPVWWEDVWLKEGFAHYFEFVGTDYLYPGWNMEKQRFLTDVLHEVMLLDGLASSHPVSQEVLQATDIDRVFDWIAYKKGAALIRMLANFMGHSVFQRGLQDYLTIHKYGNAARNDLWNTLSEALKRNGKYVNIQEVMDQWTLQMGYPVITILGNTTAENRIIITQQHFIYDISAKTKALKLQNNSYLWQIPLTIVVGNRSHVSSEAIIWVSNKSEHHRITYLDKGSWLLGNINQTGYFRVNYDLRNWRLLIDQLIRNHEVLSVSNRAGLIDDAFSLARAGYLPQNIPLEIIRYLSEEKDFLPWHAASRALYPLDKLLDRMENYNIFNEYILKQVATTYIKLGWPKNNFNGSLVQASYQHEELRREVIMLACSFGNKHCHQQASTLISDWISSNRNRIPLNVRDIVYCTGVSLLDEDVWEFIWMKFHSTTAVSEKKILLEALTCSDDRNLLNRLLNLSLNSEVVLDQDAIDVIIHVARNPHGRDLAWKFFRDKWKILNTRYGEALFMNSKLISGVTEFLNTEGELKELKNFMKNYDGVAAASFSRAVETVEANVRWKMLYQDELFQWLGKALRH
Briefly: TRH-DE inhibition test (RapidFire MS measurement of product Cyclo (His-Pro)). It counts as biochemical. The note with it: membrane fraction of Expi 293 cells expressing human TRH-DE; 10 μM TRH substrate; room temperature, 2 hours; 16-point concentration test. In short, it runs like this: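 Membrane fraction from Expi 293 cells transiently expressing human TRH-DE, at 4 μg/ml in phosphate buffer pH 7.4 with 200 μM bacitracin, reacted with compound and 10 μM substrate for 2 h at room temperature. Cyclo(His-Pro) measured by RapidFire MS against an isotope internal standard. IC50 from 16-point curves.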

The structures appear in SMILES notation. pIC50: −log10 of the molar value.

In patent publication US20260132127A1, “NOVEL SPIRO COMPOUND” (MITSUBISHI TANABE PHARMA CORPORATION, priority 2021, published 2026) one finds IC50 data, which are given here for 46 compounds.

`Cc1nc(C2CC2)n2c1C(=O)N(C1CC3(C1)CN(S(=O)(=O)c1ccccc1F)C3)[C@H](C)CC2` [Example 323] showed a negative-log IC50 (pIC50) of 6.99. The same measure for `CC1COc2nc(C3CC3)sc2C(=O)N1C1CC2(C1)CN(S(=O)(=O)c1ccccc1F)C2` (racemic) [Example 179]: 8.15. The same measure for `C[C@@H]1COc2nc(N3[C@@H]4CC[C@H]3COC4)ncc2C(=O)N1C1CC2(C1)CN(S(=O)(=O)c1ccccc1F)C2` [Example 389]: 7.92. Compound `C[C@@H]1COc2nc(Cl)c(F)cc2C(=O)N1C1CC2(C1)CN(S(=O)(=O)c1ccccc1F)C2` [Example 36] gave a pIC50 of 7.68.

On to `C[C@@H]1CCn2ncc(C3CC3)c2C(=O)N1C1CC2(C1)CN(S(=O)(=O)c1ccccc1F)C2` [Example 319], for which the pIC50 was 7.66.

In turn, `C[C@@H]1Cn2cnc(Br)c2C(=O)N1C1CC2(C1)CN(S(=O)(=O)c1ccccc1F)C2` [Example 233] gave a pIC50 of 7.51. In turn, `C[C@@H]1Cn2ncc(Cl)c2C(=O)N1C1CC2(C1)CN(S(=O)(=O)c1ccccc1F)C2` [Example 229] showed a pIC50 of 7.48.

Regarding `C[C@@H]1COCC(=O)N1C1CC2(C1)CN(S(=O)(=O)c1ccccc1F)C2` [Example 458, (5R)-4-[2-(2-fluorophenyl)sulfonyl-2-azaspiro[3.3]heptan-6-yl]-5-methylmorpholin-3-one], the pIC50 is 6.55. This pIC50 is 0.93 log units lower than that of the compound before. As to `C[C@@H]1COc2nc(OC(F)(F)F)ccc2C(=O)N1C1CC2(C1)CN(S(=O)(=O)c1ccccc1F)C2` [Example 35], the pIC50 was 8.15. `CC1C=Cc2nc(C3CC3)sc2C(=O)N1C1CC2(C1)CN(S(=O)(=O)c1ccccc1F)C2` (racemic) [Example 119]: the pIC50 was 7.89. In turn, `C[C@@H]1CCn2nc(Cl)cc2C(=O)N1C1CC2(C1)CN(S(=O)(=O)c1ccccc1F)C2` [Example 186] showed a pIC50 of 7.68. In turn, `C[C@@H]1Cn2c(cnc2C(F)(F)F)C(=O)N1C1CC2(C1)CN(S(=O)(=O)c1ccccc1F)C2` [Example 238, (6R)-7-[2-(2-fluorophenyl)sulfonyl-2-azaspiro[3.3]heptan-6-yl]-6-methyl-3-(trifluoromethyl)-5,6-dihydroimidazo[1,5-a]pyrazin-8-one] showed a pIC50 of 6.45. As for `C[C@@H]1COc2nc(C3CCC3)ncc2C(=O)N1C1CC2(C1)CN(S(=O)(=O)c1ccccc1F)C2` [Example 367], the pIC50 was 8.10.

Regarding `C[C@@H]1COc2c(cnn2C)C(=O)N1C1CC2(C1)CN(S(=O)(=O)c1ccccc1F)C2` [Example 170, (6R)-5-[2-(2-fluorophenyl)sulfonyl-2-azaspiro[3.3]heptan-6-yl]-1,6-dimethyl-6,7-dihydropyrazolo[4,3-f][1,4]oxazepin-4-one], the pIC50 was 8.15. `CCCN(C(=O)c1cccnc1OC)C1CC2(C1)CN(S(=O)(=O)c1cccs1)C2` [Example 415] gave a pIC50 of 6.07. In turn, `CC(C)Nc1ncc2c(n1)OC[C@@H](C)N(C1CC3(C1)CN(S(=O)(=O)c1ccccc1F)C3)C2=O` [Example 410] had a pIC50 of 8.30. In turn, `CCCN(C(=O)c1nc2ccccc2[nH]1)C1CC2(C1)CN(S(=O)(=O)c1cc(C)ccc1F)C2` [Example 431] had a pIC50 of 6.46. Take `CC[C@@H]1COc2nc(F)ccc2C(=O)N1C1CC2(C1)CN(S(=O)(=O)c1ccccc1F)C2` [Example 43]: the negative-log IC50 (pIC50) is 7.49.

For the compound `Cc1nnc2n1CC[C@@H](C)N(C1CC3(C1)CN(S(=O)(=O)c1ccccc1F)C3)C2=O` [Example 260, (7R)-8-[2-(2-fluorophenyl)sulfonyl-2-azaspiro[3.3]heptan-6-yl]-3,7-dimethyl-6,7-dihydro-5H-[1,2,4]triazolo[4,3-a][1,4]diazepin-9-one], the pIC50 is 7.01. For the compound `C[C@@H]1COc2nc(O[C@@H]3CCOC3)ncc2C(=O)N1C1CC2(C1)CN(S(=O)(=O)c1ccccc1F)C2` [Example 376], the pIC50 was 7.68. This pIC50 lies 0.67 log units higher than the previous one. The same measure for `C[C@@H]1COc2c(cnn2C(C)(C)C)C(=O)N1C1CC2(C1)CN(S(=O)(=O)c1ccccc1F)C2` [Example 203]: 7.47; for `CC1COc2ncccc2C(=O)N1C1CC2(C1)CN(S(=O)(=O)c1ccccc1C(F)(F)F)C2` (racemic) [Example 78]: 5.63; for `C[C@@H]1CCn2nc(C(C)(F)F)cc2C(=O)N1C1CC2(C1)CN(S(=O)(=O)c1ccccc1F)C2` [Example 187]: 7.70. For `CC1COc2ncccc2C(=O)N1C1CC2(C1)CN(S(=O)(=O)c1ccccc1Cl)C2` (racemic) [Example 73], the pIC50 was 7.04. `C[C@@H]1Cn2c(Br)nc(C3CC3)c2C(=O)N1C1CC2(C1)CN(S(=O)(=O)c1ccccc1F)C2` [Example 298] had a negative-log IC50 (pIC50) of 7.60. Compound `C[C@@H]1CNc2nc(Cl)ccc2C(=O)N1C1CC2(C1)CN(S(=O)(=O)c1ccccc1F)C2` [Example 251, (3R)-8-chloro-4-[2-(2-fluorophenyl)sulfonyl-2-azaspiro[3.3]heptan-6-yl]-3-methyl-2,3-dihydro-1H-pyrido[2,3-e][1,4]diazepin-5-one] showed a pIC50 of 9.00. As to `CCC1c2ccccc2C(=O)N1C1CC2(C1)CN(S(=O)(=O)c1cc(OC)ccc1F)C2` (racemic) [Example 274], the pIC50 is 6.82. `CC1C=Cc2ncc(F)cc2C(=O)N1C1CC2(C1)CN(S(=O)(=O)c1ccccc1F)C2` (racemic) [Example 114] had a pIC50 of 7.21.

On to `COc1ccc2c(n1)C(=O)N(C1CC3(C1)CN(S(=O)(=O)c1ccccc1F)C3)C2(C)O` (racemic) [Example 281], for which the negative logarithm of the IC50 (pIC50) is 6.92.

`C[C@@H]1Cn2cnc(C3CC3)c2C(=O)N1C1CC2(C1)CN(S(=O)(=O)c1ccccc1F)C2` [Example 328] gave a pIC50 of 7.85. Compared with the last compound, the pIC50 is 0.93 log units higher. `CCCN(C(=O)c1cccnc1OC)C1CC2(C1)CN(S(=O)(=O)c1cccc(-c3ccccc3)c1)C2` [Example 419] had a pIC50 of 6.16.

In the case of `CC(C)C(=O)N1C[C@@H](C)N(C2CC3(C2)CN(S(=O)(=O)c2ccccc2F)C3)C(=O)c2ncccc21` [Example 305], the pIC50 is 7.21. With `CC1COc2nccc(F)c2C(=O)N1C1CC2(C1)CN(S(=O)(=O)c1ccccc1F)C2` (racemic) [Example 25], the pIC50 was 7.27. In the case of `CCC1(O)c2ccccc2C(=O)N1C1CC2(C1)CN(S(=O)(=O)c1cc(C)ccc1F)C2` (racemic) [Example 288] it was 6.47; in that of `C[C@@H]1CNc2ncc(C(F)(F)F)cc2C(=O)N1C1CC2(C1)CN(S(=O)(=O)c1ccccc1[N+](=O)[O-])C2` [Example 257], 7.21. `CCC1(O)c2ccccc2C(=O)N1C1CC2(C1)CN(S(=O)(=O)c1ccccc1)C2` (racemic) [Example 285] gave a pIC50 of 6.02.

With `C[C@@H]1COc2nc(OC3CC3)ncc2C(=O)N1C1CC2(C1)CN(S(=O)(=O)c1ccccc1F)C2` [Example 373], the pIC50 is 8.30. In turn, `C[C@@H]1COc2ncc(F)cc2C(=O)N1C1CC2(C1)CN(S(=O)(=O)c1ccccc1F)C2` [Example 27] had a negative logarithm of the IC50 (pIC50) of 7.85. On to `C[C@@H]1CCN(C(=O)c2cccs2)CC(=O)N1C1CC2(C1)CN(S(=O)(=O)c1ccccc1F)C2` [Example 450], for which the negative-log IC50 (pIC50) is 7.09. As to `C[C@@H]1COc2nc(OC3CC(C#N)C3)ncc2C(=O)N1C1CC2(C1)CN(S(=O)(=O)c1ccccc1F)C2` (stereo in doubt) [Example 379], the pIC50 is 8.00. As to `C[C@@H]1CCN(C)CC(=O)N1C1CC2(C1)CN(S(=O)(=O)c1ccccc1F)C2` [Example 444], the pIC50 was 6.10.

For the compound `CCCN(C(=O)c1cccnc1N(C)C)C1CC2(C1)CN(S(=O)(=O)c1cc(C)ccc1F)C2` [Example 427], the pIC50 was 7.28. In the case of `Cc1cc2n(n1)CC[C@@H](C)N(C1CC3(C1)CN(S(=O)(=O)c1ccccc1F)C3)C2=O` [Example 184], the pIC50 is 7.80. For `C[C@@H]1CCn2cnc(Br)c2C(=O)N1C1CC2(C1)CN(S(=O)(=O)c1ccccc1F)C2` [Example 215], the negative-log IC50 (pIC50) is 7.59.

`CC1(O)c2ccccc2C(=O)N1C1CC2(C1)CN(S(=O)(=O)c1ccccc1)C2` (racemic) [Example 284] had a negative logarithm of the IC50 (pIC50) of 6.27. For `CC1CCCCC(=O)N1C1CC2(C1)CN(S(=O)(=O)c1ccccc1F)C2` (stereo not shown) [Example 459, 1-[2-(2-fluorophenyl)sulfonyl-2-azaspiro[3.3]heptan-6-yl]-7-methylazepan-2-one], the pIC50 was 6.75.
